In patent US20220031590A1, “ORAL CARE COMPOSITION” (SYMRISE AG, priority 2016, published 2022):

System: in-vitro oral biofilms
Experiment: Effect of treatment with active agents on the composition of in-vitro oral biofilms (Calgary Biofilm Device, 16S rRNA pyrosequencing)
Type: cell-based, oral bacteria
Source text: An in-vitro oral biofilm model for oral care product evaluation has recently been developed using the commercially available Calgary Biofilm Device (CBD) (Ceri, Olson, Stremick, Read, Morck, Buret, J Clin Microbiol. (1999) June; 37(6):1771-6) seeded with a natural saliva inoculum (Kistler, Pesaro, Wade, BMC Microbiol. (2015) December; 15(1):364). The pegs of the CBD were coated in hydroxyapatite to provide a surface that was chemically similar to tooth enamel. […] In addition, the composition of the biofilms was reproducible when derived from saliva of the same individuals at different time points.
Approximately 5 ml of saliva was collected from each volunteer by expectoration into sterile universal tubes. The saliva samples were then pooled together in equal volumes. DNA was extracted from an aliquot of the pooled saliva and 200 μl was pipetted into each well of a microtitre plate, as required. The wells around the edge of the microplate were not used. The device lid, with 96 hydroxyapatite-coated pegs (to mimic teeth) was fitted so that the pegs were bathed in saliva. The CBD was then incubated for 18 hours at 37° C. in air+5% CO2 after which the lid was transferred to a new baseplate containing Brain Heart Infusion (BHI) broth (Fluka Analytical) supplemented with hog gastric mucin (1 g/L), haemin (10 mg/L), and vitamin K (0.5 mg/L). The growth medium was changed after every 3.5 days.
The active agents were prepared as follows: 5% or 7.5% stock solutions were made in absolute ethanol. The stock solutions were then diluted to working concentration in sterile PBS. Thymol was diluted down to a final concentration of 0.1% v/v and the composition according to the invention, comprising 95% carrier and 5% of the compound of formula A, was diluted to 0.15% v/v. The final test concentration of the compound of formula A was 0.0075 wt.-%.
At 7 days, biofilms were treated with the active agents or a negative PBS control. […]
The bacterial composition of the biofilms and saliva was determined using 454 pyrosequencing of partial 16S rRNA genes. […]

Which “PCoA clustering of treated biofilms relative to negative control” value (community membership (Jaccard index) and structure (thetaYC)) does the source give for `Cc1ccc(C(C)C)c(O)c1` [Thymol] here?
Its value is “did not cluster separately”.

What about the “Mean no. of OTUs (sd)” value (richness of the biofilm community, treated twice daily for seven days, thymol 0.1% v/v, composition 0.15% v/v, 10 replicates) of the same molecule?
The value was 250.8.

And the “Effect on the composition of in-vitro biofilms” value (summary statement)?
Its value is “did not have a significant effect”.
